Data: patent US20250235543A1, “MODIFIED PROTEINS AND PROTEIN DEGRADERS” (Cullgen (Shanghai), Inc., priority 2021, published 2025)
Read-outs that look alike come from different tables or passages of the source.

Experiments:
cyclin D1 = assay: Cyclin D1 percentage degradation in Calu-1 cells (immunoblotting); assay type: cell-based; conditions: 16 hours
How it was run: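 Cells were rinsed once in cold PBS and lysed in cold RIPA buffer containing protease and phosphatase inhibitors, with gentle agitation at 4° C. for 30 min. Lysates were spun at 13,000 rpm for 10 min at 4° C., protein was measured by BCA, and samples were boiled in Laemmli buffer at 99° C. for 5 min before SDS-PAGE immunoblotting.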

CDK4 = biological target: T1, CDK4 (Homo sapiens, UniProt P11802); assay: CDK4 percentage degradation in Calu-1 cells (immunoblotting); assay type: cell-based; conditions: for inhibition at 0.2 µM: read-out: CDK4 Degradation (200 nM); for inhibition at 10 µM: read-out: CDK4 Degradation (10 μM)
T1 construct: endogenous in cells; host or cells: Calu-1
How it was run: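 Cultured cells were rinsed once in cold PBS and lysed in cold RIPA buffer containing protease and phosphatase inhibitors, with gentle agitation at 4° C. for 30 min. Lysates were centrifuged at 13,000 rpm for 10 min at 4° C., and protein was quantified by BCA. Samples were then separated by SDS-PAGE, detected with ECL, and the CDK4 bands quantified in Image Lab.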

T1 sequence (P11802 2-303 limits assumed): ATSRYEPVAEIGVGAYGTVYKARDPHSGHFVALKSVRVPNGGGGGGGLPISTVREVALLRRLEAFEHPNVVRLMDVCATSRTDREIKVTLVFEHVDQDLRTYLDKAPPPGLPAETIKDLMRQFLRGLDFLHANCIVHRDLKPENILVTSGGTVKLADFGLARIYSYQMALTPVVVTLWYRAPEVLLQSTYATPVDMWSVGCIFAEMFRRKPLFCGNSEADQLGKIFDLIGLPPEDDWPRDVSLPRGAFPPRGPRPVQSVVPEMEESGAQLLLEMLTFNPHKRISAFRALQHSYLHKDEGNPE
T1 sequence (P24385 whole entry partner): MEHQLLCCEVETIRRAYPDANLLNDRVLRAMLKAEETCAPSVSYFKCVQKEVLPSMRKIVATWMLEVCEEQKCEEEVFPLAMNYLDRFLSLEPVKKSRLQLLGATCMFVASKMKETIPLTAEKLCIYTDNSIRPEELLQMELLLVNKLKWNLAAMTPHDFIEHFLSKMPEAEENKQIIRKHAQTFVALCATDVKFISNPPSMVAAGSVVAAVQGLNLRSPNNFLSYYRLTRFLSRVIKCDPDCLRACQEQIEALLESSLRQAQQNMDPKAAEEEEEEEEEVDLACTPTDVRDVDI
T1 sequence (Q16531 2-1140 limits assumed, further chain): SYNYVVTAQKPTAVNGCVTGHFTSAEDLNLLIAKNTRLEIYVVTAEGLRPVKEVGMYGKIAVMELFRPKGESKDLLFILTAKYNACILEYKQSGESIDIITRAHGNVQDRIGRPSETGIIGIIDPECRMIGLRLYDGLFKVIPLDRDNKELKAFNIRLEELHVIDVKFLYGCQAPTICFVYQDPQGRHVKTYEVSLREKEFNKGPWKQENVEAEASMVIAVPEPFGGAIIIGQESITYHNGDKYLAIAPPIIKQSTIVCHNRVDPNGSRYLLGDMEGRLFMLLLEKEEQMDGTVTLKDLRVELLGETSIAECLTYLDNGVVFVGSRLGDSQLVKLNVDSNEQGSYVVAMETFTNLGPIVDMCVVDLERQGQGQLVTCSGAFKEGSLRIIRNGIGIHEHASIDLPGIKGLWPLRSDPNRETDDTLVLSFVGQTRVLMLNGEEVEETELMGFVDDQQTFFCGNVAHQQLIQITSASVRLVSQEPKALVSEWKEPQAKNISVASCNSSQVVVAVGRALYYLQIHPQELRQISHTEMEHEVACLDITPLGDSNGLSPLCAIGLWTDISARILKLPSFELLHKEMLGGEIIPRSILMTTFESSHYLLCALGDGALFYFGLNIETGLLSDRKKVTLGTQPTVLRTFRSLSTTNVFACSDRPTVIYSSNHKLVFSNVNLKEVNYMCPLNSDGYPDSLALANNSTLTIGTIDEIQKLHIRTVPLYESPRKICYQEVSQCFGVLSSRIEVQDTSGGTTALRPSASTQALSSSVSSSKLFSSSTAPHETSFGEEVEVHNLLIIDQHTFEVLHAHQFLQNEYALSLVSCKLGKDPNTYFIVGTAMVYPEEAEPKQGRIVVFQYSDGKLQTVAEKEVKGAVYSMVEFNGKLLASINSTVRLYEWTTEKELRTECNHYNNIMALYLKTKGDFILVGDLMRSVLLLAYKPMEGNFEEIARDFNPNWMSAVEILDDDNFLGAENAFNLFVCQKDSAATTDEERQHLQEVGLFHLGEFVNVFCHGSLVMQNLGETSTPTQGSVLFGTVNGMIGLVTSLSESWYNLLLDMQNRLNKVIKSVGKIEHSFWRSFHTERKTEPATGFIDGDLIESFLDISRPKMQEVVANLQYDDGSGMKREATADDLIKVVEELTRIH

Structure (SMILES) | CyclinD1 Degradation (200 nM) (cyclin D1) | inhibition at 0.2 µM (CDK4; Calu-1 cells, 200 nM, 16 hours) [%] | inhibition at 0.2 µM (CDK4; Calu-1, 16 h) [%] | CyclinD1 Degradation (10 μM) (cyclin D1) | inhibition at 10 µM (CDK4; Calu-1 cells, 16 hours) [%]
CC(=O)c1c(C)c2cnc(Nc3ccc(N4CCN(CC(=O)NCCCCCCCNc5cc(C)ccc5C(=O)Nc5nc(C)c(C)s5)CC4)cn3)nc2n(C2CCCC2)c1=O [CPD-368, 2-((7-(2-(4-(6-((6-Acetyl-8-cyclopentyl-5-methyl-7-oxo-7,8-dihydropyrido[2,3-d]pyrimidin-2-yl)amino)pyridin-3-yl)piperazin-1-yl)acetamido)heptyl)amino)-N-(4,5-dimethylthiazol-2-yl)-4-methylbenzamide] | A (protein percentage degradation >=80%) | > 80 |  |  | 
COc1ccc(NC(=O)c2cccc(NCCOCCOCCNC(=O)CN3CCN(c4ccc(Nc5ncc6c(C)c(C(C)=O)c(=O)n(C7CCCC7)c6n5)nc4)CC3)c2C)nn1 [CPD-341, 3-((2-(2-(2-(2-(4-(6-((6-Acetyl-8-cyclopentyl-5-methyl-7-oxo-7,8-dihydropyrido[2,3-d]pyrimidin-2-yl)amino)pyridin-3-yl)piperazin-1-yl)acetamido)ethoxy)ethoxy)ethyl)amino)-N-(6-methoxypyridazin-3-yl)-2-methylbenzamide] | D (protein percentage degradation <30%) | < 30 |  |  | 
CC(=O)c1c(C)c2cnc(Nc3ccc(N4CCN(CCCCCCCCCCNc5cccc(C(=O)Nc6nc(C)c(C)s6)c5C)CC4)cn3)nc2n(C2CCCC2)c1=O [CPD-078, 3-((10-(4-(6-((6-Acetyl-8-cyclopentyl-5-methyl-7-oxo-7,8-dihydropyrido[2,3-d]pyrimidin-2-yl)amino)pyridin-3-yl)piperazin-1-yl)decyl)amino)-N-(4,5-dimethylthiazol-2-yl)-2-methylbenzamide] | D (protein percentage degradation <30%) |  | < 30 |  | 
COc1ccc(NC(=O)c2ccc(N(C)C)cc2NC(=O)CCOCCOCCNC(=O)CN2CCN(c3ccc(Nc4ncc5c(C)c(C(C)=O)c(=O)n(C6CCCC6)c5n4)nc3)CC2)nn1 [CPD-365, 2-(3-(2-(2-(2-(4-(6-((6-Acetyl-8-cyclopentyl-5-methyl-7-oxo-7,8-dihydropyrido[2,3-d]pyrimidin-2-yl)amino)pyridin-3-yl)piperazin-1-yl)acetamido)ethoxy)ethoxy)propanamido)-4-(dimethylamino)-N-(6-methoxypyridazin-3-yl)benzamide] | A (protein percentage degradation >=80%) | > 80 |  |  | 
Cc1nc(NC(=O)c2ccccc2NC(=O)CCOCCOCCNC(=O)CN2CCN(c3ccc(Nc4ncc(F)c(-c5cc(F)c6nc(C)n(C(C)C)c6c5)n4)nc3)CC2)sc1C [CPD-309, N-(4,5-Dimethylthiazol-2-yl)-2-(3-(2-(2-(2-(4-(6-((5-fluoro-4-(4-fluoro-1-isopropyl-2-methyl-1H-benzo[d]imidazol-6-yl)pyrimidin-2-yl)amino)pyridin-3-yl)piperazin-1-yl)acetamido)ethoxy)ethoxy)propanamido)benzamide] |  |  |  | D (protein percentage degradation < 30%) | 30 to 50
CC(=O)c1c(C)c2cnc(Nc3ccc(N4CCN(CC(=O)NCCCCCNc5cccc(C(=O)Nc6nc(C)c(C)s6)c5C)CC4)cn3)nc2n(C2CCCC2)c1=O [CPD-100, 3-((5-(2-(4-(6-((6-Acetyl-8-cyclopentyl-5-methyl-7-oxo-7,8-dihydropyrido[2,3-d]pyrimidin-2-yl)amino)pyridin-3-yl)piperazin-1-yl)acetamido)pentyl)amino)-N-(4,5-dimethylthiazol-2-yl)-2-methylbenzamide] | D (protein percentage degradation <30%) | < 30 |  |  | 
CC(=O)c1c(C)c2cnc(Nc3ccc(N4CCN(C(=O)CCOCCOCCOCCOCCOCCOCCC(=O)Nc5ccccc5C(=O)Nc5nc(C)c(C)s5)CC4)cn3)nc2n(C2CCCC2)c1=O [CPD-182, 22-(4-(6-((6-Acetyl-8-cyclopentyl-5-methyl-7-oxo-7,8-dihydropyrido[2,3-d]pyrimidin-2-yl)amino)pyridin-3-yl)piperazin-1-yl)-N-(2-((4,5-dimethylthiazol-2-yl)carbamoyl)phenyl)-22-oxo-4,7,10,13,16,19-hexaoxadocosanamide] | D (protein percentage degradation <30%) |  | < 30 |  | 
CC(=O)c1c(C)c2cnc(Nc3ccc(N4CCN(CC(=O)NCCOCCOCCC(=O)Nc5cc(F)ccc5C(=O)Nc5nc(C)c(C)s5)CC4)cn3)nc2n(C2CCCC2)c1=O [CPD-143, 2-(3-(2-(2-(2-(4-(6-((6-Acetyl-8-cyclopentyl-5-methyl-7-oxo-7,8-dihydropyrido[2,3-d]pyrimidin-2-yl)amino)pyridin-3-yl)piperazin-1-yl)acetamido)ethoxy)ethoxy)propanamido)-N-(4,5-dimethylthiazol-2-yl)-4-fluorobenzamide] | A (protein percentage degradation >=80%) | > 80 |  |  | 
CC(=O)c1c(C)c2cnc(Nc3ccc(N4CCN(CC(=O)NCCOCCOCCOCCOCCNc5ccc(C)c(C(=O)Nc6nc(C)c(C)s6)c5)CC4)cn3)nc2n(C2CCCC2)c1=O [CPD-118, 5-((1-(4-(6-((6-Acetyl-8-cyclopentyl-5-methyl-7-oxo-7,8-dihydropyrido[2,3-d]pyrimidin-2-yl)amino)pyridin-3-yl)piperazin-1-yl)-2-oxo-6,9,12,15-tetraoxa-3-azaheptadecan-17-yl)amino)-N-(4,5-dimethylthiazol-2-yl)-2-methylbenzamide] | D (protein percentage degradation <30%) | < 30 |  |  | 
Cc1nc(NC(=O)c2ccccc2NC(=O)CCOCCOCCOCCOCCNC(=O)CN2CCN(Cc3ccc(Nc4ncc(F)c(-c5cc(F)c6nc(C)n(C(C)C)c6c5)n4)nc3)CC2)sc1C [CPD-283, N-(4,5-Dimethylthiazol-2-yl)-2-(1-(4-((6-((5-fluoro-4-(4-fluoro-1-isopropyl-2-methyl-1H-benzo[d]imidazol-6-yl)pyrimidin-2-yl)amino)pyridin-3-yl)methyl)piperazin-1-yl)-2-oxo-6,9,12,15-tetraoxa-3-azaoctadecan-18-amido)benzamide] |  |  |  | D (protein percentage degradation < 30%) | < 30
CC(=O)c1c(C)c2cnc(Nc3ccc(N4CCN(C(=O)CCCCCCNc5cccc(C(=O)Nc6nc(C)c(C)s6)c5C)CC4)cn3)nc2n(C2CCCC2)c1=O [CPD-138, 3-((7-(4-(6-((6-Acetyl-8-cyclopentyl-5-methyl-7-oxo-7,8-dihydropyrido[2,3-d]pyrimidin-2-yl)amino)pyridin-3-yl)piperazin-1-yl)-7-oxoheptyl)amino)-N-(4,5-dimethylthiazol-2-yl)-2-methylbenzamide] | D (protein percentage degradation <30%) | < 30 |  |  | 
CC(=O)c1c(C)c2cnc(Nc3ccc(N4CCN(CC(=O)NCCOCCOCCC(=O)Nc5cccc(C)c5C(=O)Nc5nc(C)c(C)s5)CC4)cn3)nc2n(C2CCCC2)c1=O [CPD-139, 2-(3-(2-(2-(2-(4-(6-((6-Acetyl-8-cyclopentyl-5-methyl-7-oxo-7,8-dihydropyrido[2,3-d]pyrimidin-2-yl)amino)pyridin-3-yl)piperazin-1-yl)acetamido)ethoxy)ethoxy)propanamido)-N-(4,5-dimethylthiazol-2-yl)-6-methylbenzamide] | D (protein percentage degradation <30%) | < 30 |  |  | 
CC(=O)c1c(C)c2cnc(Nc3ccc(N4CCN(CC(=O)NCCOCCOCCC(=O)Nc5cc6c(cc5C(=O)Nc5ccc(C)cn5)CCN6)CC4)cn3)nc2n(C2CCCC2)c1=O [CPD-360, 6-(3-(2-(2-(2-(4-(6-((6-Acetyl-8-cyclopentyl-5-methyl-7-oxo-7,8-dihydropyrido[2,3-d]pyrimidin-2-yl)amino)pyridin-3-yl)piperazin-1-yl)acetamido)ethoxy)-ethoxy)propanamido)-N-(5-methylpyridin-2-yl)indoline-5-carboxamide] | A (protein percentage degradation >=80%) | > 80 |  |  | 
Cc1nc(NC(=O)c2ccccc2NC(=O)CCOCCOCCNC(=O)CN2CCN(Cc3ccc(Nc4ncc(F)c(-c5cc(F)c6nc(C)n(C(C)C)c6c5)n4)nc3)CC2)sc1C [CPD-281, N-(4,5-Dimethylthiazol-2-yl)-2-(3-(2-(2-(2-(4-((6-((5-fluoro-4-(4-fluoro-1-isopropyl-2-methyl-1H-benzo[d]imidazol-6-yl)pyrimidin-2-yl)amino)pyridin-3-yl)methyl)piperazin-1-yl)acetamido)ethoxy)ethoxy)propanamido)benzamide] |  |  |  | D (protein percentage degradation < 30%) | < 30
CC(=O)c1c(C)c2cnc(Nc3ccc(N4CCN(C(=O)CCOCCOCCOCCOCCOCCOCCNc5ccc(C)c(C(=O)Nc6nc(C)c(C)s6)c5)CC4)cn3)nc2n(C2CCCC2)c1=O [CPD-131, 5-((21-(4-(6-((6-Acetyl-8-cyclopentyl-5-methyl-7-oxo-7,8-dihydropyrido[2,3-d]pyrimidin-2-yl)amino)pyridin-3-yl)piperazin-1-yl)-21-oxo-3,6,9,12,15,18-hexaoxahenicosyl)amino)-N-(4,5-dimethylthiazol-2-yl)-2-methylbenzamide] | D (protein percentage degradation <30%) |  | < 30 |  | 
Cc1nc(NC(=O)c2ccccc2NC(=O)CCNC(=O)CN2CCN(c3ccc(Nc4ncc5cc6n(c5n4)C4(CCCCC4)CNC6=O)nc3)CC2)sc1C [CPD-315, N-(4,5-Dimethylthiazol-2-yl)-2-(3-(2-(4-(6-((6′-oxo-7′,8′-dihydro-6′H-spiro[cyclohexane-1,9′-pyrazino[1′,2′:1,5]pyrrolo[2,3-d]pyrimidin]-2′-yl)amino)pyridin-3-yl)piperazin-1-yl)acetamido)propanamido)benzamide] |  |  |  | D (protein percentage degradation < 30%) | < 30
